Where “and” joins values, the source holds several entries; their conditions need not be identical. Equal values may be shown once. Entries after “also recorded” stand apart in the source; their conditions may differ. Read-outs that look alike come from different tables or passages of the source.
Columns and labels:
[1] = Acute toxicity LD50, subcutaneous, rats
[2] = Acute toxicity LD50, subcutaneous, mice
[3] = O2^- scavenging / SOD activity, DMSO-KO2 nitro blue tetrazolium method; assay type: biochemical; details: mean
Experimental: The SOD activity of Orgotein and of tumor homogenates is assayed by the method of Beauchamp and Fridovich. Reaction mixtures contain 0.05M potassium phosphate buffer (pH 7.8) with 10^-3 M diethylenetriaminepentaacetic acid, 10^-4 M of xanthine, 5.6×10^-5 M of nitro blue tetrazolium, 10^-3 units of xanthine oxidase and 1 unit of catalase. Addition of 5×10^-3 M NaCN to this mixture inhibits CuZnSOD activity and allows the measurement of the activity of the cyanid insensitive MnSOD alone. The rate of blue formazan formation is measured by following the change of absorbance at 560 nm with a Cary Model 15 spectrophotometer. The sensitivity of the assay was such that 1 unit equaled 14±1 ng of pure erythrocyte SOD. The amount of protein in each sample is assayed using a conventional method. […] After bones and muscles are removed, the tumor tissue is rinsed and minced in 0.05 M potassium phosphate buffer (pH 7.8) and homogenized in a motor-driven Teflon pestle homogenizer. […] CuDIPS is dissolved in 10% Tween 80-saline. This alternate method is chosen due to the length of previous procedure and lipid insolubility of some of the reactants of the previous assay. Free O2^- is released when DMSO-KO2 is added to an aqueous solution. […] The formation of blue formazan is determined by recording the final absorbance of the assay mixture at 560 nm with a Cary Model 15 spectrophotometer. […]

[4] = system: neuroblastoma cell clone NBP2; assay type: cell-based, mouse; details: 3 days; for % differentiation: control 8.0 ± 3.7; for % differentiation / Cell number ×10^5: mean ± S.D.; for Cell number ×10^5: control 17.1 ± 1.9
Experimental: The neuroblastoma cell clone NBP2 provided by Dr. K. N. Prasad (University of Colorado), is maintained according to the procedure of Prasad and Hsie, Prasad, K. N. and Hsie, A. N., Nature New Biol. 233:141 (1971), hereby incorporated by reference. Cells are grown as a monolayer in 75 cm^2 Falcon plastic tissue culture flasks containing F-12 medium supplemented with 10% gamma globulin-free new born calf serum, penicillin (100 U/ml) and streptomycin (100 μg/ml). Cultures are maintained in a humidified atmosphere of 5% CO2 in a water jacketed incubator at 37° C. […] Only exponentially growing cells are used in the experiment. […] Medium, serum, antibiotics, and pancreatin are purchased from Grand Island Biological Company. […] Fifty-thousand cells were seeded in each […] plastic petri dish containing 5 ml of the growth medium. Cells are treated with CuDIPS 24 hours after seeding. CuDIPS is dissolved in ethanol to give a final concentration of 10, 25, or 50 μg/ml of copper compound in the medium. The concentration of ethanol in the medium is kept constant at 1% in all the treated and control dishes. Culture dishes containing 1% ethanol serve as controls. One day after the start of treatments and daily afterwards, fresh drug and medium are provided in each dish. To avoid possible degradation, CuDIPS is dissolved in ethanol immediately before use. The experiment is done in triplicate. Three days after the initial treatments the number of cells and percent differentiation of cells are scored in each dish. Four hundred cells per culture dish from at least three different regions are examined with a Leitz Divert phase contrast microscope. Cells with one or more processes at least twice as long as the soma diameter (processes usually longer than 50 microns) are scored as differentiated. To count the number of cells, cells are harvested with Pancreatin and the number of cells in each dish is determined by counting cells in a hemocytometer.

[5] = Body weight of tumor bearing CBA mice (Ehrlich carcinoma); assay type: in vivo
[6] = rats, subcutaneous; reported; cited from earlier work
[7] = SOD activity, xanthine-xanthine oxidase nitro blue tetrazolium method (Beauchamp and Fridovich); assay type: biochemical
Experimental: Orgotein, a generic name for CuZnSOD derived from bovine liver, is obtained from Diagnostic Data Incorporated, Mountain View, California. It is 98% pure CuZnSOD isolated from bovine liver and had 3,300 units of pure erythrocyte SOD activity/mg protein when assayed by the method of Beauchamp, C. and Fridovich, I., Superoxide Dismutase: Improved Assays and an Assay Applicable to Acrylamide Gel., Anal. Biochem. 44:276-287 (1971), hereby incorporated by reference. Orgotein was dissolved in USP grade nonpyrogenic sterile saline.
The SOD activity of Orgotein and of tumor homogenates is assayed by the method of Beauchamp and Fridovich. Reaction mixtures contain 0.05M potassium phosphate buffer (pH 7.8) with 10^-3 M diethylenetriaminepentaacetic acid, 10^-4 M of xanthine, 5.6×10^-5 M of nitro blue tetrazolium, 10^-3 units of xanthine oxidase and 1 unit of catalase. […] The rate of blue formazan formation is measured by following the change of absorbance at 560 nm with a Cary Model 15 spectrophotometer. […] O2^- scavenging ability of CuDIPS is determined by a similar assay method; the only difference is that dimethyl sulfoxide (DMSO) solvated potassium superoxide (KO2) is used to generate O2^- instead of xanthine and xanthine oxidase. […] The formation of blue formazan is determined by recording the final absorbance of the assay mixture at 560 nm with a Cary Model 15 spectrophotometer. […]

Sarcoma 180 cells [8] = test: Tumor growth and survival of CF1 mice implanted with Sarcoma 180 cells; assay type: in vivo
Experimental: Autopsies are performed on all dead animals.

Sarcoma 180 cells [9] = test: Viability of Sarcoma 180 cells incubated in Orgotein; assay type: cell-based, mice; details: 2.5×10^7 cells/ml; 0.8 mg/ml, one hour
Experimental: Table II and Chart II show the survival times of these tumor bearing mice; there is a 23% increase in mean survival time in the Orgotein treated group (p less than 0.1). Viability of the Sarcoma 180 cells (2.5×10^7 cells/ml) is unchanged when they are incubated in 0.8 mg/ml Orgotein for one hour, showing that the effect of Orgotein is probably not due to cytotoxicity.

[10] = 50 μg/ml, listed as Cu(II)(3,5-diisopropylsalicylate)2

## CC(=O)Oc1ccccc1C(=O)[O-].CC(=O)Oc1ccccc1C(=O)[O-].CC(=O)Oc1ccccc1C(=O)[O-].CC(=O)Oc1ccccc1C(=O)[O-].[Cu+2].[Cu+2] [Cu(II)2 (aspirinate)4]
[1]
  LD50: 760 mg/kg
[2]
  LD50: greater than 320 mg/kg

## CC(C)c1cc(C(=O)[O-])c(O)c(C(C)C)c1.CC(C)c1cc(C(=O)[O-])c(O)c(C(C)C)c1.[Cu+2] [CuDIPS, Cu(II) (3,5-diisopropylsalicylate)2]
[3]
  SOD activity: 17,400±1,800 units of SOD activity/mg of the compound
[4]; 10 μg/ml, listed as Cu(II)(3,5-diisopropylsalicylate)2
  % differentiation: 7.4 ± 2.6%
[4]; 10 μg/ml, p less than 0.05
  Cell number ×10^5: a small reduction in the number of cells per culture dish
[4]; 10 μg/ml, p less than 0.05, listed as Cu(II)(3,5-diisopropylsalicylate)2
  Cell number ×10^5: 12.7 ± 1.4 ×10^5
[4]; 25 μg/ml
  cell population relative to control: less than half of the cell population
  % differentiation: 22.4±2.6%
[4]; 25 μg/ml, listed as Cu(II)(3,5-diisopropylsalicylate)2
  % differentiation: 22.4 ± 2.6%
[4]; 25 μg/ml, per culture dish
  Cell number ×10^5: 7.1±1.2 ×10^5
[4]; 25 μg/ml, per culture dish, listed as Cu(II)(3,5-diisopropylsalicylate)2
  Cell number ×10^5: 7.1 ± 1.2 ×10^5
[4]; 50 μg/ml
  morphology of treated cells: morphologically resembles mature neural cells
  % differentiation: 74.2±4.9%
  Cell number ×10^5: a remarkable reduction in cell population
[4]; [10]
  % differentiation: 74.2 ± 4.9%
  Cell number ×10^5: 1.4 ± 0.6 ×10^5
[5]; mouse, in vivo
  body weight change: no weight loss was observed
[6]
  LD50: 240 mg/kg and 240 ± 33 mg/kg

## O=S(=O)([O-])[O-].[Cu+2] [CuSO4, copper sulfate]
[5]; CuSO4 0.5 mg in 0.1 ml, 5 days
  body weight change: continuous loss of weight

## CC(C)c1cc(C(=O)O)c(O)c(C(C)C)c1 [DIPS, diisopropylsalicylic acid]
[5]; DIPS i.m., single doses
  body weight change: loss of body weight

## Orgotein: generic name for CuZnSOD derived from bovine liver
[7]; method of Beauchamp and Fridovich
  SOD activity of Orgotein as obtained: 3,300 units of pure erythrocyte SOD activity/mg protein
[7]; xanthine-xanthine oxidase method
  SOD activity: 49,500±300 units of SOD activity/mg protein
Sarcoma 180 cells [8]; 1.2 mg at 1 hour after implantation, after 27 days
  tumor growth curve vs control after 27 days: the growth curves are the same
Sarcoma 180 cells [8]; 1.2 mg at 1 hour after implantation, p less than 0.05 between 11 and 27 days
  reduction in tumor size: reduction of tumor size; also recorded: a reduction in tumor size is observed
Sarcoma 180 cells [8]; 1.2 mg i.m. at 1 hour
  Maximum Survival Time: 90 days
  Median Survival Time: 53 days
Sarcoma 180 cells [8]; 1.2 mg i.m. at 1 hour, ± standard error, p less than 0.1
  Mean Survival Time: 53 ± 5 days
Sarcoma 180 cells [8]; Orgotein treated group, p less than 0.1
  increase in mean survival time: 23%
Sarcoma 180 cells [8]; local injection, Sarcoma 180
  effect on tumor growth and survival: a slight effect on the tumor growth and survival
Sarcoma 180 cells [8]; same dose given 5 or 10 days after transplantation
  tumor growth / survival, delayed treatment: no significant decrease in tumor growth or increase in survival is observed
Sarcoma 180 cells [9]
  Viability of the Sarcoma 180 cells: unchanged

— patent US4952607A, “Copper complex for treating cancer” (priority 1986, dated 1990)
